Measured values: patent US10328033B2, “Methods and biocompatible compositions to achieve sustained drug release in the eye” (Integral Biosystems LLC, priority 2014, dated 2019)

Experiment: Photo-oxidation stress by high intensity UV light
Type: physicochemical
Settings: UV 254 nm, 24 hours, in buffer alone
Method: Nanomesh wafers (ML-ES-06-31) were tested for photo-oxidative degradation by high intensity UV light (254 nm, for 24 hours). […] In contrast, 50% of the travoprost in buffer alone was degraded under these conditions.

travoprost degraded: 50%
Compound: CC(C)OC(=O)CCC/C=C\C[C@@H]1[C@@H](/C=C/[C@@H](O)COc2cccc(C(F)(F)F)c2)[C@H](O)C[C@@H]1O [travoprost]
